From patent publication US20160220738A1, “PROGESTERONE-CONTAINING COMPOSITIONS AND DEVICES” (priority 2007, published 2016)
“Also recorded” adds a separate entry of the source.

Key:
vascular SMCs = settings: cited from earlier work
ECs = settings: cited from earlier work
[1] = tested on: platelet suspensions or whole blood; settings: in vitro; cited from earlier work
[2] = tested on: human coronary endothelial cells (HCEC); test: Human coronary endothelial cell growth (Example 14); assay type: cell-based
Procedure: In addition, cells will be grown for 5 and 7 days. For cell cultures grown longer than 3 days, culture medium is changed twice weekly, according to standard protocols in the art, and includes antibiotics and other standard additives as appropriate. […] Addition of the progesterone-treated or control (untreated) medium to the cells was counted as day 0. […] Cell cultures were maintained at 37° C. in an atmosphere containing 5% carbon dioxide. Appropriate precautions were taken to prevent accelerated breakdown, including protection of the cell cultures from light. Cultured human coronary endothelial and smooth muscle cells were obtained from commercial services. […] Dilutions were prepared using ethanol such that the total quantity of ethanolic drug volume added to any experimental culture was 10 μL. For proliferation and apoptosis studies, EC or SMC was seeded in multiple culture wells at a density of 5,000 cells/cm^2. […] Cell counts were conducted at days 1, 3, and 5 and will be conducted at day 7, using a Coulter counter. From these counts, the influence of the drug concentration on cell growth rate was calculated. Sampling and analysis of endothelial cells is performed as follows. At each time point, triplicate samples are analyzed for growth measurements. The rate of cell proliferation is assayed by counting the number of cells across the 8 day growth period. Absolute cell density is measured with a Coulter Counter. Cell viability is determined by a live-dead cell apoptosis assay (Molecular Probes, Inc.).

[3] = tested on: human coronary smooth muscle cell (HCSMC); test: Human coronary smooth muscle cell proliferation (Example 14); assay type: cell-based; settings: for difference in growth of progesterone treated SMC versus control: 30 μg/ml; for Average Number of Cells/dish / SMC proliferation (in words): HCSMC, progesterone 30 μg/ml; for SMC proliferation (in words): days 1, 3, 5
Procedure: In addition, cells will be grown for 5 and 7 days. For cell cultures grown longer than 3 days, culture medium is changed twice weekly, according to standard protocols in the art, and includes antibiotics and other standard additives as appropriate.
(§1) Cell cultures were maintained at 37° C. in an atmosphere containing 5% carbon dioxide. Appropriate precautions were taken to prevent accelerated breakdown, including protection of the cell cultures from light.
Cultured human coronary endothelial and smooth muscle cells were obtained from commercial services. […] Dilutions were prepared using ethanol such that the total quantity of ethanolic drug volume added to any experimental culture was 10 μL. For proliferation and apoptosis studies, EC or SMC was seeded in multiple culture wells at a density of 5,000 cells/cm^2. […] Cell counts were conducted at days 1, 3, and 5 and will be conducted at day 7, using a Coulter counter. From these counts, the influence of the drug concentration on cell growth rate was calculated.
Sampling and analysis of SMC is performed as follows. At each time point, triplicate samples are analyzed for growth measurements. The rate of cell proliferation is assayed by counting the number of cells across the 8 day growth period. Absolute cell density is measured with a Coulter Counter. Cell viability is determined by a live-dead cell apoptosis assay (Molecular Probes, Inc.).

[4] = tested on: human aortic smooth muscle cells; test: Human aortic smooth muscle cell proliferation (Example 10); assay type: cell-based; settings: HASMC, progesterone 10 μg/ml; for smooth muscle cell proliferation (in words): up to 8 days
Procedure: For cell cultures grown longer than 3 days, culture medium was changed twice weekly, according to standard protocols in the art, and included antibiotics and other standard additives as appropriate.
as §1
At each timepoint, triplicate samples were analyzed via growth measurements. The rate of cell proliferation was assayed by counting the number of cells across the 8 day growth period. Absolute cell density was measured with a Coulter Counter. Cell viability was determined by trypan blue staining.

V189 (VEGF189) = settings: perivascular decidual endometrial cells, mid-late secretory phase and early gestation; cited from earlier work
[5] = tested on: human infragenicular VSMCs; test: Human infragenicular VSMC proliferation under high glucose and insulin (Example 12); assay type: cell-based; settings: progesterone 10 ng/mL, glucose 100/200 mg/dL, insulin 0/100 ng/mL, day 6
Procedure: Methods are according to 2002 J Vasc Surg 36, 833-838, except as otherwise noted.
Human infragenicular VSMCs are isolated from the tibial arteries of male patients with diabetes undergoing lower extremity amputation. Immunocytochemical studies with confocal microscopy are performed for progesterone receptor identification in these VSMCs. Cells are grown to subconfluence, followed by exposure to deprived media with various glucose (100 and 200 mg/dL) and insulin (no insulin and 100 ng/mL) concentrations. […] Cell count and methyl-3H-thymidine incorporation are used to determine cellular proliferation. Cell count with hemocytometry is performed on day 6. DNA synthesis as reflected through methyl-3H-thymidine incorporation is measured at 24 hours.

[6] = tested on: primary astrocyte cultures; test: Glucose transport inhibition in astrocytes (Example 13); assay type: cell-based, rat; settings: 24 hours exposure
[7] = tested on: human aortic endothelial cells (HAEC) or U937 monocytic cells; settings: d-alpha-tocopherol 20, 40, 60 micromol/l for 20 h, IL-1beta stimulated; cited from earlier work
HAEC = settings: cited from earlier work

SMILES: CCCCCC/C=C/C=C\CCCCCCCC(=O)O [C18:2c9t11, rumenic acid]
- secretion of eicosanoids (PGI2 and PGE2) (vascular SMCs): attenuate secretion of eicosanoids
- EC production of PAF (ECs): inhibit EC production of PAF
- platelet aggregation [1]: inhibit platelet aggregation

SMILES: CCCCCC/C=C/C=C/CCCCCCCC(=O)O [C18:2t9t11]
- platelet aggregation [1]: inhibit platelet aggregation

SMILES: CCCCC/C=C\C=C\CCCCCCCCC(=O)O [C18:2t10c12]
- secretion of eicosanoids (PGI2 and PGE2) (vascular SMCs): attenuate secretion of eicosanoids
- EC production of PAF (ECs): inhibit EC production of PAF
- platelet aggregation [1]: inhibit platelet aggregation

SMILES: CC(=O)[C@H]1CC[C@H]2[C@@H]3CCC4=CC(=O)CC[C@]4(C)[C@H]3CC[C@]12C [Progesterone, pregn-4-ene-3,20-dione]
- increase in growth of the progesterone treated EC versus control ([2]; 30 μg/ml, day 1): 5.3%
- difference in growth of progesterone treated EC versus control ([2]; 30 μg/ml, day 3, increase): 27.5%
- difference in growth of progesterone treated EC versus control ([2]; 30 μg/ml, day 5, increase): 29.3%
- Average Number of Cells/dish ([2]; HCEC, progesterone 30 μg/ml, day 1): 6207 Cells/dish
- Average Number of Cells/dish ([2]; HCEC, progesterone 30 μg/ml, day 3): 7227 Cells/dish
- Average Number of Cells/dish ([2]; HCEC, progesterone 30 μg/ml, day 5): 8658 Cells/dish
- endothelial cell growth (in words) ([2]; HCEC, progesterone 30 μg/ml, days 1, 3, 5): promoted growth of the EC both on the first and third days; also recorded: enhanced endothelial cell growth; also recorded: increases endothelial cells
- difference in growth of progesterone treated SMC versus control ([3]; day 1, inhibition): 12.1%
- difference in growth of progesterone treated SMC versus control ([3]; day 3, inhibition): 20.8%
- difference in growth of progesterone treated SMC versus control ([3]; day 5, inhibition): 53.7%
- Average Number of Cells/dish ([3]; day 1): 7092 Cells/dish
- Average Number of Cells/dish ([3]; day 3): 9492 Cells/dish
- Average Number of Cells/dish ([3]; day 5): 10844 Cells/dish
- SMC proliferation (in words) [3]: decrease SMC's compared to control in a dose response fashion
- SMC proliferation (in words) ([3]; listed as progesterone): showed inhibition of SMC on the first day of treatment; also recorded: inhibits SMC proliferation
- Average number of cells per dish ([4]; day 1): 7902 cells per dish
- Average number of cells per dish ([4]; day 3): 14871 cells per dish
- Average number of cells per dish ([4]; day 6): 17618 cells per dish
- Average number of cells per dish ([4]; day 8): 20018 cells per dish
- smooth muscle cell proliferation (in words) [4]: decrease SMC's compared to control in a dose response fashion
- smooth muscle cell proliferation (in words) ([4]; listed as progesterone): inhibited smooth muscle cell proliferation
- V189 expression (V189 (VEGF189)): selectively increases
- cellular proliferation by cell count [5]: significantly inhibited cellular proliferation

SMILES: C[C@]12CCC(=O)C=C1CC[C@@H]1[C@@H]2[C@@H](O)C[C@@]2(C)[C@H]1CC[C@]2(O)C(=O)CO [cortisol]
- concentration inhibiting glucose transport [6]: 1 µM

SMILES: Cc1c(C)c2c(c(C)c1O)CC[C@@](C)(CCC[C@H](C)CCC[C@H](C)CCCC(C)C)O2 [vitamin E, d-alpha-tocopherol]
- adhesion of HAEC and U937 monocytic cells [7]: inhibited their adhesion
- IL-1beta-induced productions of MCP-1 and IL-8 (HAEC; 20, 40, 60 micromol/l): dose-dependently suppressed
- IL-1beta-stimulated expression of ICAM-1, VCAM-1 and E-selectin (HAEC; 20, 40, 60 micromol/l): suppressed
- IL-8 production (HAEC; 60 micromol/l): reduced IL-8 production significantly
- IL-1beta-induced production of IL-6 (HAEC; at the doses used): dose-dependently inhibited
- spontaneous production of IL-6 (HAEC; at the doses used): did not significantly change
- spontaneous production of MCP-1 (HAEC; up to 60 micromol/l): not effective
